Results reported in patent US20240124483A1, “Methods for the Treatment of Fibrotic Disease” (SHY Therapeutics, LLC, priority 2021, published 2024).
Where two headings read alike, the source gives them in different places.

Columns and labels:
[1] = tested on: AKT phosphorylation; experiment: Western AKT Cell-Based Phosphorylation Assay; conditions: Homo sapiens, PANC-1, 6 hours, EGF 1.5 ng/ml, read-out: % inh of AKT phosphorylation in PANC-1
Experimental: (§1) Human tumor-derived pancreatic cancer cell line Panc-1 was purchased from American Type Culture Collection and grown in complete DMEM-High Glucose supplemented with penicillin (100 U/mL), streptomycin (100 μg/mL), and 10% heat-inactivated FBS at 37° C. in a humidified incubator with 5% CO2.
(§2) Method: Cells were plated at 350000 cells/well density in a 12-well plate, allowed 3 hours to adhere to the plate, then starved in the appropriate medium in the presence of 0.5% FBS overnight. The small molecules to be tested were added to the cells in the final concentration of 10 μM in the presence of 0.3% DMSO for 6 hours incubation at 37° C. Next, cells were stimulated with 1.5 ng/ml EGF for 15 minutes then cells were lysed with lysis buffer containing 1% Triton X-100, EDTA, and Halt™ Protease & Phosphatase Inhibitor Cocktail (Thermo Scientific). Protein concentration was assessed by BCA protein assay (Thermo Scientific). Phosphorylation level of Akt was determined by western blot.
(§3) Western blot protocol: Equal amounts of protein (15-50 μg) were separated by SDS-PAGE and transferred to nitrocellulose membranes (Invitrogen by Thermo Fisher Scientific). The membrane was stained with Ponceau S Stain (Boston BioProducts) to verify uniform protein loading. Membranes were blocked with 10% milk and phosphorylation levels of Akt were assessed by incubating overnight at 4° C. with anti-phospho-Akt (Ser473) antibody (Cell Signaling) followed by HRP-conjugated secondary antibody (Jackson Immunoresearch, West Grove, PA). Bands were incubated in Amersham ECL Prime Western Blotting Detection Reagent (GE Healthcare) and visualized using the ChemiDoc MP imaging system (Bio-Rad).

[2] = biological target: KRas Q61H mutant (Homo sapiens (Human), UniProt P01116, Q61H); experiment: Ras GTP Binding Domain Inhibition Assay, KRas Q61H mutant; conditions: 20 μM
Chain of KRas Q61H mutant (P01116 other isoform, or with tags, fused parts or gaps Q61H): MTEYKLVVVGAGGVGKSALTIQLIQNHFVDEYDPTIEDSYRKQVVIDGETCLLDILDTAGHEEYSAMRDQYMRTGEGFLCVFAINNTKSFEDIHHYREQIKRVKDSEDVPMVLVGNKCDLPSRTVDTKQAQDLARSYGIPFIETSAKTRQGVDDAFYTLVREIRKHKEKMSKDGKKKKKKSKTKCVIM
Experimental: A Ras Superfamily Activity Assay (as disclosed in International Application No. PCT/US2018/038613, filed Jun. 20, 2018, which is incorporated by reference in its entirety) was used as a specific assay to evaluate compounds against the following for the following Ras Superfamily proteins: KRas wild type, KRas Q61H mutant, KRas G12C mutant, KRas G12D mutant, Rac-1, and Rho-A.
Buffer-I: • 25 mM Tris-HCl, pH 7.4 • 27 mM KCl • 137 mM NaCl • 1 mM MgCl2 • 1 mM DTT
Buffer-II: • 50 mM Tris-HCl, pH 7.0 • 1 mM MgCl2 • 1 mM DTT
The small GTPases proteins: KRas wild type. KRas Q61H mutant, KRas G12C mutant, KRas G12D mutants, Rac-1, and Rho-A were expressed as His-tagged proteins. In addition, the Guanosine nucleotide Exchange Factor (GEF) Sos protein (residues 556-1049) was expressed as a His-tagged protein. In cells, the guanine nucleotide exchange factor Sos protein promotes activation of Ras proteins by stimulating an exchange of GDP for GTP. The inclusion of Sos to the Ras GTP binding domain inhibition assay may be considered as an alternative representation of physiological cellular conditions for evaluating the inhibitory activity of some of the tested small molecules.
For the assay, all purified small GTPases proteins were diluted in Buffer-I or Buffer-II to a final concentration of 10-30 μg/mL. 200 μL of each diluted protein was added to a nickel-coated 96-well plate and incubated overnight at 4° C. Then the protein solution was discarded and 200 μL of Buffer-I or Buffer-II was added to each well in the presence of 1% DMSO. Compounds to be tested were added to the protein-coated wells at final concentration of 20 μM, and incubated for 3 hours at room temperature with and without 10-30 μg/mL of Sos added to the final hour of the incubation. When performing IC50 measurements a serial dilution of all tested concentrations was added. Then Cy3-GTP or Cy5-GTP was added to each well to a final concentration of 100 nM. The labeled GTP was incubated for 45 minutes at room temperature. Following GTP incubation, wells were washed 3× in Buffer-I or Buffer-II and 200 μL of Buffer-I or Buffer-II was added to each well. Following washes, the amount of bound labeled-GTP was measured using a SpectraMax M3 (Molecular Devices).

[3] = tested on: ERK1/2 phosphorylation; experiment: Western ERK1/2 Cell-Based Phosphorylation Assay; conditions: Homo sapiens, PANC-1, 6 hours, EGF 1.5 ng/ml, read-out: % inh of ERK1/2 phosphorylation in PANC-1
Experimental: as §1, with “Cell lines: Human” for “Human”, “Glucose,” for “Glucose”
as §2, with “C. For IC50 value determination, serial dilutions of compounds were added to cells under the same conditions.” for “C.”, “ERK1/2” for “Akt”
as §3, with “ERK1/2” for “Akt”, “anti-phospho-p44/42 (Thr202/Tyr204)” for “anti-phospho-Akt (Ser473)”

[4] = + SOS, read-out: KRas Q61H mutant + SOS: % inh.
[5] = without SOS, read-out: KRas Q61H mutant: % inh.

Row | inhibition at 20 µM [2, 4] | inhibition at 20 µM [2, 5] | SMILES | inhibition at 10 µM [1] | inhibition at 10 µM [3]
1 | 76 to 100% | 46 to 75% | COCCn1c(-c2nccn2C)nc2sc(-c3ccn(C(C)C)n3)c(C)c2c1=O [Compound 29, 6-(1-Isopropyl-1H-pyrazol-3-yl)-3-(2-methoxyethyl)-5-methyl-2-(1-methyl-1H-imidazol-2-yl)thieno[2,3-d]pyrimidin-4(3H)-one] | 0% | 0%
2 | 1 to 25% | 0% | COCCOc1nc(-c2nccn2C)nc2sc(-c3ccn(C(C)C)n3)c(C)c12 [Compound 30, 6-(1-Isopropyl-1H-pyrazol-3-yl)-4-(2-methoxyethoxy)-5-methyl-2-(1-methyl-1H-imidazol-2-yl)thieno[2,3-d]pyrimidine] | 0% | 0%
3 | 0% | 0% | COCCCn1c(-c2nccn2C)nc2sc(-c3ccn(C(C)C)n3)c(C)c2c1=O [Compound 31, 6-(1-Isopropyl-1H-pyrazol-3-yl)-3-(3-methoxypropyl)-5-methyl-2-(1-methyl-1H-imidazol-2-yl)thieno[2,3-d]pyrimidin-4(3H)-one] | 0% | 0%
4 | 46 to 75% | 46 to 75% | COCCCOc1nc(-c2nccn2C)nc2sc(-c3ccn(C(C)C)n3)c(C)c12 [Compound 32, 6-(1-Isopropyl-1H-pyrazol-3-yl)-4-(3-methoxypropoxy)-5-methyl-2-(1-methyl-1H-imidazol-2-yl)thieno[2,3-d]pyrimidine] | 1 to 25% | 0%
5 | 1 to 25% | 0% | COCCCCn1c(-c2nccn2C)nc2sc(-c3ccn(C(C)C)n3)c(C)c2c1=O [Compound 33, 6-(1-Isopropyl-1H-pyrazol-3-yl)-3-(4-methoxybutyl)-5-methyl-2-(1-methyl-1H-imidazol-2-yl)thieno[2,3-d]pyrimidin-4(3H)-one] | 0% | 0%
6 | 1 to 25% | 1 to 25% | COc1cc(Cn2c(-c3nccn3C)nc3sc(-c4ccn(C(C)C)n4)c(C)c3c2=O)ncn1 [Compound 35, 6-(1-Isopropyl-1H-pyrazol-3-yl)-3-((6-methoxypyrimidin-4-yl)methyl)-5-methyl-2-(1-methyl-1H-imidazol-2-yl)thieno[2,3-d]pyrimidin-4(3H)-one] | 0% | 0%
7 | 0% | 0% | COCCCn1c(-c2nccn2C)nc2sc(-c3ccn(C(C)C)n3)c(-c3ccccc3)c2c1=O [Compound 36, 6-(1-Isopropyl-1H-pyrazol-3-yl)-3-(3-methoxypropyl)-2-(1-methyl-1H-imidazol-2-yl)-5-phenylthieno[2,3-d]pyrimidin-4(3H)-one] | 0% | 0%

Further lines, the compound ahead of its results:

Row | SMILES | inhibition at 20 µM [2, 4] | inhibition at 20 µM [2, 5] | inhibition at 10 µM [1] | inhibition at 10 µM [3]
8 | COc1cccc(Nc2nc(-c3nccn3C)nc3sc(-c4ccn(C(C)C)n4)c(C)c23)n1 [Compound 18, 6-(1-Isopropyl-1H-pyrazol-3-yl)-N-(6-methoxypyridin-2-yl)-5-methyl-2-(1-methyl-1H-imidazol-2-yl)thieno[2,3-d]pyrimidin-4-amine] | 46 to 75% | 46 to 75% | 26 to 45% | 0%
9 | COc1cc(Nc2nc(-c3nccn3C)nc3sc(-c4ccn(C(C)C)n4)c(C)c23)ncn1 [Compound 19, 6-(1-Isopropyl-1H-pyrazol-3-yl)-N-(6-methoxypyrimidin-4-yl)-5-methyl-2-(1-methyl-1H-imidazol-2-yl)thieno[2,3-d]pyrimidin-4-amine] | 76 to 100% | 76 to 100% | 76 to 100% | 76 to 100%
10 | COCCOCCNc1nc(-c2nccn2C)nc2sc(-c3ccn(C(C)C)n3)c(C)c12 [Compound 21, 6-(1-Isopropyl-1H-pyrazol-3-yl)-N-(2-(2-methoxyethoxy)ethyl)-5-methyl-2-(1-methyl-1H-imidazol-2-yl)thieno[2,3-d]pyrimidin-4-amine] | 76 to 100% | 76 to 100% | 1 to 25% | 0%
11 | Cc1c(-c2ccn(C(C)C)n2)sc2nc(-c3nccn3C)nc(NCCN3CCOCC3)c12 [Compound 22, 6-(1-Isopropyl-1H-pyrazol-3-yl)-5-methyl-2-(1-methyl-1H-imidazol-2-yl)-N-(2-morpholinoethyl)thieno[2,3-d]pyrimidin-4-amine] | 76 to 100% | 76 to 100% | 1 to 25% | 0%
12 | Cc1c(-c2ccn(C(C)C)n2)sc2nc(-c3nccn3C)nc(NCCN3CCS(=O)(=O)CC3)c12 [Compound 23, 4-(2-((6-(1-Isopropyl-1H-pyrazol-3-yl)-5-methyl-2-(1-methyl-1H-imidazol-2-yl)thieno[2,3-d]pyrimidin-4-yl)amino)ethyl)thiomorpholine 1,1-dioxide] | 76 to 100% | 76 to 100% | 0% | 0%
13 | CO[C@H]1CNC[C@@H](Nc2nc(-c3nccn3C)nc3sc(-c4ccn(C(C)C)n4)cc23)C1 [Compound 28, 6-(1-Isopropyl-1H-pyrazol-3-yl)-N-((3S,5R)-5-methoxypiperidin-3-yl)-2-(1-methyl-1H-imidazol-2-yl)thieno[2,3-d]pyrimidin-4-amine] | 76 to 100% | 46 to 75% | 26 to 45% | 46 to 75%
14 | COCCCCOc1nc(-c2nccn2C)nc2sc(-c3ccn(C(C)C)n3)c(C)c12 [Compound 34, 6-(1-Isopropyl-1H-pyrazol-3-yl)-4-(4-methoxybutoxy)-5-methyl-2-(1-methyl-1H-imidazol-2-yl)thieno[2,3-d]pyrimidine] | 1 to 25% | 0% | 0% | 0%
